In experiment [1] the test system is IDDM. The following applies: mice, subcutaneously (sc) in an oil vehicle (IFA); cited from earlier work.
Experiment [2] deals with NOD mice. Put plainly: Antibody isotypes induced by p277(Val^6-Val^11) therapy, isotype ELISA (Example 3). Format: in vivo, mouse. Particulars: NOD mice 3 months old, treated in oil, FIG. 2. The protocol: The sera of individual mice were assayed for the isotypes of their antibodies to p277(Val6-Val^11) after treatment (12-15 mice per group). The antibody isotypes were detected using an ELISA assay with isotype-specific developing antibody reagents (Southern Biotechnology Associates, Birmingham, Ala.). […] The columns in each experiment show results from equal numbers of mice; an apparent reduction in numbers of circles is caused by superimposition.

For experiment [3], the system named is T cells reactive to the p277(Val^6-Val^11). Put plainly: Cytokine profile of spleen cells of treated NOD mice, cytokine ELISA (Example 4). It counts as in vivo, mouse. Particulars: spleen cells 5 weeks after treatment. The text has this: Concanavalin A (ConA), a T-cell mitogen, was used to activate total splenic T-cells as a control.
Five weeks later, the spleens of the mice were removed and the spleen cells were pooled. […] The presence of the cytokines in the culture supernatants was quantitated by ELISA, using Pharmingen paired antibodies according to the Pharmingen cytokine ELISA protocol. Pharmingen recombinant mouse cytokines were used as standards for calibration curves. Briefly, flat-bottom 96-well microtiter plates were coated with rat anti-mouse cytokine mAbs for 18 h at 4° C., and the culture supernatants or recombinant mouse cytokines were added for 18 h at 4° C. The plates were washed, and biotinylated rat anti-mouse cytokine mAbs were added for 45 min at room temperature, then extensively washed, and avidin-alkaline phosphatase was added. The plates were washed, a chromogen substrate (p-nitrophenylphosphate) was added and samples were read at 405 nm in an ELISA reader. The concentrations of cytokines are shown as the OD readings. *P<0.01.

Experiment [4] has as its system autoimmune T cells. Nature of the experiment: p277(Val^6-Val^11)-peptide treatment: spontaneous T-cell responses and autoantibodies (summary statement). It counts as in vivo, mouse. The following applies: peptide in an appropriate carrier.

Consider “p277: human hsp60 positions 437-460: VLGGGCALLRCIPALDSLTPANED”, for which, in experiment [1], the “Peptide therapy for treatment of IDDM” value is “effective”.

“p32: human hsp60 positions 466-485: EIIKRTLKIPAMTIAXNAGV (EIIKRTLKIPAMTIAKNAGV)”: in experiment [1], the “Peptide therapy for treatment of IDDM” value is “effective”.

Regarding “p277(Val^6-Val^11): SEQ ID NO 4, hsp60 437-460 with C-442 and C-447 changed to V: VLGGGVALLRVIPALDSLTPANED”, in experiment [2], the “TH1-type IgG2a antibodies” value is listed as “no TH1-type IgG2a antibodies induced”; the “isotypes of the anti-p277 antibodies developing after treatment” value was “exclusively of the IgG1 and IgG2b classes”. Also, the “IL-2 cytokine response to ConA” value in experiment [3] (24 h incubation with Con A, FIG. 3B) is recorded as “maintained”. The “IL-2 secretion in response to incubation with peptide p277(Val^6-Val^11)” value in experiment [3] (24 h incubation, vs control mice (PBS in Intralipid), P<0.01, FIG. 3A) was “significantly less”. Moreover, the “IFNγ cytokine response to ConA” value in experiment [3] (48 h incubation with Con A, FIG. 3B) is recorded as “maintained”. For the same substance, the “IFNγ secretion in response to incubation with peptide p277(Val^6-Val^11)” value in experiment [3] (48 h incubation, vs control mice (PBS in Intralipid), P<0.01, FIG. 3A) is on record as “significantly less”. In addition, in experiment [4], the “production of autoantibodies to hsp60, to GAD and to insulin” value is reported as “abolished”; the “spontaneous T-cell proliferative responses to epitopes of both hsp60 and GAD” value is recorded as “down-regulated”; the “spontaneous T-cell response of the treated mice to a bacterial hsp60 peptide” value is reported as “remained in the TH1 mode”.

Consider “p12: human hsp60 positions 166-185: EEIAQVATISANGDKEIGNI”, for which the “Peptide therapy for treatment of IDDM” value in experiment [1] is “effective”.

(Values after patent US6488933B2, “Preparations for the treatment of T cell mediated diseases” (Yeda Research and Development Co. Ltd., priority 1995, dated 2002).)
